Legend:
[1] = buffering capacity of ciclesonide in the ethanolic solution; type: physicochemical; settings: ethanol/water solution acidified with HCl 0.1 M
Description: More HCl is added than needed to achieve […] in demineralized water alone due to the buffering capacity of ciclesonide.

[2] = chemical stability of ciclesonide in ethanolic formulation as a function of pHapp; type: physicochemical; settings: pHapp range of 4.0 to 4.6, no buffer
From the text: To identify an appropriate pHapp in an ethanolic liquid formulation comprising ciclesonide is a challenge. On the one hand side the stability of ciclesonide is better at higher (more neutral) pH values. However, on the other hand, the pH should not be too high since at low [H^+] values already small amounts of contaminants and decomposition products can cause a relatively large change in pHapp. Furthermore, the use of a buffer for inhalable formulations is undesirable due to the administration of the buffer constituents to the lungs and the possibility of the buffer constituents forming a residue in the inhaler which may affect the spray characteristics of the aerosol. […] The addition of buffer is not necessary to create the advantageous formulation of the present invention.

[3] = taken orally; cited from earlier work

| buffering capacity [1] [μmol/g ciclesonide] | chemical stability of ciclesonide [2] | Compound | potency relative to cortisol [3] [times] | potency relative to prednisone [3] [times] |
| --- | --- | --- | --- | --- |
| −3.6 | chemically stable | CC(C)C(=O)OCC(=O)C12OC(C3CCCCC3)OC1CC1C3CCC4=CC(=O)C=CC4(C)C3C(O)CC12C [ciclesonide, (11β,16α)-16,17-[[(R)-Cyclohexylmethylene]bis(oxy)]-11-hydroxy-21-(2-methyl-1-oxopropoxy)pregna-1,4-diene-3,20-dione] | – | – |
| – | – | dexamethasone | 27 | 7 |

Source: patent US11819549B2, “Pharmaceutical formulation comprising ciclesonide” (Boehringer Ingelheim Vetmedica GmbH, priority 2012, dated 2023)
